Measurements as given in EP4475229A1, “QUINONE-TYPE MOLECULES FOR ZINC-ION AQUEOUS BATTERIES” (Centre National de la Recherche Scientifique, priority 2023, dated 2024).
In brackets after ≈: the same amount, converted by molar mass. Where two headings read alike, the source gives them in different places.

Legend:
[1] = cited from earlier work
[2] = Solubility of literature quinones in aqueous electrolytes, reported or estimated from references
Procedure: However, such value can be roughly estimated in the case of ref [4] by using equilibration tests reported in the figure 2e of this publication for PTO molecules.
In the table, (a) is for Estimated at mAM/Vel= 3/0.5 mg/ml and (b) vs. the maximum observed capacity (c) Estimated from Fig2e ref [4], that is 3.6% capacity loss upon 24h rest (OCV) in reduced state.

[3] = for saturation limit in comparison with compound 2 (2,5 DTBHQ) / saturation limit: 1 week at room temperature; for saturation limit: argon
physchem = conditions: water
[4] = 1.25 M Zn(CH3COO)2, pH 4-5, 10080 min

In the case of `Oc1ccc(O)cc1` [1,4-benzohydroquinone], the “solubility in water compared with 1,4-benzoquinone” value ([1]; water, background statement) is listed as “six times more soluble”.

For `O=c1c(=O)c2cccc3c2-c2c1cccc2c(=O)c3=O` [PTO], the “Solubility factor vs. 2,5 DTBHQ” value ([2]; 2M ZnSO4, pH 4-5, ref [4]) was greater than 11, the “Solubility factor vs. 2,5 DTBHQ” value ([2]; 2.5M Li2SO4, pH 7, ref [5]) was greater than 10000 and the Solubility reduced state ([2]; 4.4M H2SO4, pH 0, ref [5], presumed) was “Presumed Not soluble”. The “maximum solubility relative to compound 2 (2,5 DTBHQ)” value ([2]; estimated from ref [4], reduced state) was “approx. 11 times”, the Solubility oxidized state ([1]; 2.5M Li2SO4, pH 7, ref [5]) was “Soluble (Fig. S21)” and the Solubility oxidized state ([1]; 4.4M H2SO4, pH 0, ref [5]) was 0.0047 (Fig. S18) mmol/L.

In the case of `NC1=C(N)C(=O)C(N)=C(N)C1=O` [TABQ], the “Solubility factor vs. 2,5 DTBHQ” value ([2]; 1M ZnSO4, pH 4-5, ref [1]) is given as roughly 100 and the Solubility oxidized state ([1]; 1M ZnSO4, pH 4-5, ref [1]) is given as 1.7 mmol/L (≈ 286 µg/mL).

In the case of `O=C1C(O)=C(O)C(=O)C(O)=C1O` [THBQ], the “Solubility factor vs. 2,5 DTBHQ” value ([2]; 1M ZnSO4, pH 4-5, ref [1]) is given as roughly 100 and the Solubility oxidized state ([1]; 1M ZnSO4, pH 4-5, ref [1]) is given as 3.4 mmol/L (≈ 585 µg/mL).

In the case of `CC(C)(C)C1=CC(=O)C(C(C)(C)C)=CC1=O` [compound 1], the Solubility oxidized state [3, 4] is reported as 26 µM (≈ 5.73 µg/mL), the Solubility reduced state [3, 4] is reported as 204 µM (≈ 44.9 µg/mL) and the “saturation limit in comparison with compound 2 (2,5 DTBHQ)” value ([3]; acetate electrolytes) is reported as “nearly ten times lower”. The saturation limit ([3]; acetic acid/potassium acetate pH 4.8, acetic acid/zinc acetate pH 4.5, zinc acetate 1.25 M pH 4.2) was 26.16 µmol/L and the solubility thermodynamic at 1 week (physchem) was 5.7 µg/mL (≈ 25.9 µM).

With `CC(C)(C)c1cc(O)ccc1O` [compound 8] the Solubility reduced state [3, 4] was 20400 µM (≈ 3390 µg/mL), the “saturation limit in comparison with compound 2 (2,5 DTBHQ)” value ([3]; acetate electrolytes) was roughly 100 times and the saturation limit ([3]; acetate electrolytes) was 20.4 mM/L.

For `O=C1C(=O)C(Cl)=C(Cl)C(Cl)=C1Cl` [o-TCBQ], the “Solubility factor vs. 2,5 DTBHQ” value ([2]; 1M ZnSO4, pH 4-5, ref [1]) is listed as roughly 100 and the Solubility oxidized state ([1]; 1M ZnSO4, pH 4-5, ref [1]) is listed as 2.3 mmol/L (≈ 566 µg/mL).

With `O=C1C(Cl)=C(Cl)C(=O)C(Cl)=C1Cl` [p-TCBQ] the Solubility oxidized state ([3]; pH 7) was “Slightly soluble”.
